Experimental data reported in patent US20160257697A1, “THIOPHENE-SUBSTITUTED TETRACYCLIC COMPOUNDS AND METHODS OFUSE THEREOF FOR THE TREATMENT OF VIRAL DISEASES” (priority 2013, published 2016).
pIC50: −log10 of the molar value. Where two headings read alike, the source gives them in different places.

Legend:
Experiment in all cases: microbe, parasite or virus in culture
Assay type in all cases: cell-based, Hepatitis C virus (HCV)
[1] = test system: HCV replicon 1B; conditions: Replicon Assay B
[2] = test system: HCV replicon 1AQ30D; conditions: Replicon Assay B; for IC50: read-out: 1A Q30D IC50 (nM), replicon 1AQ30D
[3] = test system: HCV replicon 1A; conditions: Replicon Assay A
Procedure, shortened: (§1)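 Replicon cells were seeded at 2000 cells/well with test compound in 0.5% DMSO and 5% FBS, then harvested on day 3. Replicon RNA was measured by multiplex TaqMan real-time RT-PCR, using cyclophilin RNA as the endogenous control and quantified against standard curves of HCV replicon total RNA.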

[4] = test system: HCV replicon 2B
Procedure, shortened: as §1

[5] = test system: HCV replicon 1AY93H
Procedure, shortened: as §1

[6] = replicon 1AQ30D, read-out: 1A Q30D IC50
[7] = replicon 2B; Replicon Assay A; read-out: 2B IC50
[8] = replicon 1AY93H; Replicon Assay A; read-out: 1A Y93H IC50
[9] = read-out: 1A Q30D IC50, replicon 1AQ30D
[10] = read-out: 2B IC50; replicon 2B; Replicon Assay A
[11] = read-out: 1A Y93H IC50; replicon 1AY93H; Replicon Assay A
[12] = Hepatitis C virus, HCV replicon 1B
[13] = Hepatitis C virus, read-out: 1A Q30D IC50, HCV replicon 1A Q30D
[14] = read-out: 2B IC50; HCV replicon 2B; Replicon Assay A
[15] = read-out: 1A Y93H IC50; HCV replicon 1A Y93H; Replicon Assay A
[16] = read-out: 1A Q30D IC50, HCV replicon 1A Q30D
[17] = Hepatitis C virus, HCV replicon 1A

Structure (SMILES) | pIC50 ([1]; replicon 1B) | pIC50 ([3]; replicon 1A) | pIC50 [4, 10] | pIC50 [5, 11] | pIC50 ([3]; HCV replicon 1A) | pIC50 [4, 14] | pIC50 [5, 15] | further results
COC(=O)NC(C(=O)N1CCC[C@H]1c1ncc(-c2ccc3c(c2)cc2n3C(c3ccc(CC(F)(F)F)s3)Oc3cc(-c4cnc([C@@H]5CCCN5C(=O)[C@@H](NC(=O)OC)C(C)C)[nH]4)cc(F)c3-2)[nH]1)C1C[C@@H](C)O[C@@H](C)C1 (single isomer, unassigned) [Compound 382] | 11.60 | 11.77 |  |  |  |  |  | pIC50 [2, 6]: 10.64; pIC50 [4, 7]: 11.10; pIC50 [5, 8]: 11.47
COC(=O)NC(C(=O)N1CCC[C@H]1c1ncc(-c2ccc3c(c2)cc2n3C(c3ccc(C4CC4)s3)Oc3cc(-c4cnc([C@@H]5CCCN5C(=O)[C@@H](NC(=O)OC)C(C)C)[nH]4)cc(F)c3-2)[nH]1)C1CCO[C@H](C)C1 (single isomer, unassigned) [Compound 136] | 11.77 | 11.74 | 9.64 | 9.70 |  |  |  | pIC50 [2, 9]: 9.05
COCCc1ccc(C2Oc3cc(-c4cnc([C@@H]5CCCN5C(=O)[C@@H](NC(=O)OC)C(C)C)[nH]4)cc(F)c3-c3cc4cc(-c5cnc([C@@H]6CCCN6C(=O)[C@@H](NC(=O)OC)C(C)C)[nH]5)ccc4n32)s1 (single isomer, unassigned) [Compound 82] | 11.89 | 11.96 |  |  |  |  |  | pIC50 [2, 6]: 9.59; pIC50 [4, 7]: 9.82; pIC50 [5, 8]: 10.85
COC(=O)NC(C(=O)N1CCC[C@H]1c1ncc(-c2ccc3c(c2)cc2n3C(c3ccc(C4CC4)s3)Oc3cc(-c4cnc([C@@H]5C[C@H]6C[C@H]6N5C(=O)[C@@H](NC(=O)OC)C(C)C)[nH]4)cc(F)c3-2)[nH]1)C1C[C@@H](C)O[C@@H](C)C1 (single isomer, unassigned) [Compound 538] |  |  |  |  | 11.33 | 10.29 | 11.15 | pIC50 [1, 12]: 11.49; pIC50 [2, 13]: 9.87
COC(=O)N[C@H](C(=O)N1C2CC2C[C@H]1c1ncc(-c2cc(F)c3c(c2)OC(c2ccc(C4CC4)s2)n2c-3cc3cc(-c4cnc([C@@H]5CCCN5C(=O)[C@@H](NC(=O)OC)C5C[C@@H](C)O[C@@H](C)C5)[nH]4)ccc32)[nH]1)C(C)C (single isomer, unassigned) [Compound 554] |  |  |  |  | 10.57 | 9.69 | 9.63 | pIC50 ([1]; HCV replicon 1B): 10.65; pIC50 [2, 16]: 8.78
COC(=O)N[C@H](C(=O)N1CCC[C@H]1c1ncc(-c2cc(F)c3c(c2)OC(c2cc(C4CC4)cs2)n2c-3cc3cc(-c4cnc([C@@H]5CCCN5C(=O)[C@@H](NC(=O)OC)C(C)C)[nH]4)ccc32)[nH]1)C(C)C (single isomer, unassigned) [Compound 24] | 11.51 | 11.57 | 8.56 | 8.87 |  |  |  | pIC50 [2, 9]: 7.83
COC(=O)N[C@H](C(=O)N1CCC[C@H]1c1ncc(-c2cc(F)c3c(c2)OC(c2ccc(C4CC4)s2)n2c-3cc3cc(-c4cnc([C@@H]5CCCN5C(=O)[C@@H](NC(=O)OC)C5CCOCC5)[nH]4)ccc32)[nH]1)C(C)C (stereo partly shown) [Compound 127] |  |  |  |  |  |  |  | pIC50 ([1]; Hepatitis C virus, replicon 1B): 11.55; IC50 ([2]; Hepatitis C virus): 0.02 nM; pIC50 ([3]; Hepatitis C virus, replicon 1A): 11.70; IC50 ([4]; Hepatitis C virus, read-out: 2B IC50 (nM), replicon 2B; Replicon Assay A): 0.003 nM; IC50 ([5]; Hepatitis C virus, read-out: 1A Y93H IC50 (nM), replicon 1AY93H; Replicon Assay A): 0.002 nM
COC(=O)NC(C(=O)N1CCC[C@H]1c1ncc(-c2ccc3c(c2)cc2n3C(c3ccc(C4CCCC4)s3)Oc3cc(-c4cnc([C@@H]5CCCN5C(=O)[C@@H](NC(=O)OC)C(C)C)[nH]4)cc(F)c3-2)[nH]1)C1C[C@@H](C)O[C@@H](C)C1 (single isomer, unassigned) [Compound 656] |  |  |  |  | 11.82 | 11.59 | 11.60 | pIC50 ([1]; HCV replicon 1B): 11.55; pIC50 [2, 16]: 10.32
COC(=O)NC(C(=O)N1CCC[C@H]1c1ncc(-c2ccc3c(c2)cc2n3C(c3cc4c(s3)CCC4)Oc3cc(-c4cnc([C@@H]5CCCN5C(=O)[C@@H](NC(=O)OC)C(C)C)[nH]4)cc(C)c3-2)[nH]1)C1CCOC(C)(C)C1 (single isomer, unassigned) [Compound 853] |  |  |  |  | < 11.44 | 10.96 | 10.07 | pIC50 ([1]; HCV replicon 1B): 11.38; pIC50 [2, 13]: 9.15
CCc1ccc(C2Oc3cc(-c4cnc([C@@H]5CCCN5C(=O)[C@@H](NC(=O)OC)C(C)C)[nH]4)cc(C)c3-c3cc4cc(-c5cnc([C@@H]6CCCN6C(=O)C(NC(=O)OC)C6C[C@@H](C)O[C@@H](C)C6)[nH]5)ccc4n32)s1 (single isomer, unassigned) [Compound 543] |  |  |  |  |  | 10.96 | 10.40 | pIC50 [1, 12]: 11.07; pIC50 [2, 13]: 9.51; pIC50 [3, 17]: 11.26
COC(=O)N[C@H](C(=O)N1CCC[C@H]1c1nc(-c2cc(F)c3c(c2)OC(c2ccc(C)s2)n2c-3cc3cc(-c4cnc([C@@H]5CCCN5C(=O)[C@@H](NC(=O)OC)C5CCOCC5)[nH]4)ccc32)c[nH]1)C(C)C (stereo partly shown) [Compound 59] | 11.46 | 11.89 | 11.15 | 11.40 |  |  |  | pIC50 [2, 9]: 10.74
COC(=O)N[C@H](C(=O)N1CCC[C@H]1c1ncc(-c2ccc3c(c2)OC(c2ccc(C4CC4)s2)n2c-3cc3cc(-c4cnc([C@@H]5CCCN5C(=O)[C@@H](NC(=O)OC)C5CCOCC5)[nH]4)ccc32)[nH]1)C(C)C (single isomer, unassigned) [Compound 335] |  | 11.60 | 11.40 | 11.28 |  |  |  | pIC50 ([1]; Hepatitis C virus, replicon 1B): 11.92; IC50 ([2]; Hepatitis C virus): 0.0639 nM
COC(=O)N[C@H](C(=O)N1CCC[C@H]1c1ncc(-c2cc(F)c3c(c2)OC(c2ccc(C(=O)N(C)C)s2)n2c-3cc3cc(-c4cnc([C@@H]5CCCN5C(=O)[C@@H](NC(=O)OC)C(C)C)[nH]4)ccc32)[nH]1)C(C)C (single isomer, unassigned) [Compound 104] |  | 11.37 | 10.14 | 10.34 |  |  |  | pIC50 ([1]; Hepatitis C virus, replicon 1B): 11.29; IC50 ([2]; Hepatitis C virus): 1.11 nM
COC(=O)N[C@H](C(=O)N1CCC[C@H]1c1ncc(-c2cc(F)c3c(c2)OC(c2ccc(C4CC4)s2)n2c-3c(F)c3cc(-c4cnc([C@@H]5CCCC5C(=O)[C@@H](NC(=O)OC)C5CCOCC5)[nH]4)ccc32)[nH]1)C(C)C (single isomer, unassigned) [Compound 363] | 11.68 | 11.82 | 11.43 | 11.32 |  |  |  | pIC50 [2, 9]: 10.36
COC(=O)NC(C(=O)N1CCC[C@H]1c1ncc(-c2ccc3c(c2)cc2n3C(c3ccc(CC4CC4)s3)Oc3cc(-c4cnc([C@@H]5CCCN5C(=O)[C@@H](NC(=O)OC)C(C)C)[nH]4)cc(F)c3-2)[nH]1)C1CCO[C@H](C)C1 (single isomer, unassigned) [Compound 367] |  |  | 10.65 | 10.46 |  |  |  | pIC50 ([1]; Hepatitis C virus, replicon 1B): 11.47; pIC50 [2, 9]: 9.44; pIC50 ([3]; Hepatitis C virus, replicon 1A): 11.68
COC(=O)N[C@H](C(=O)N1CCC[C@H]1c1ncc(-c2cc(F)c3c(c2)OC(c2cc4c(s2)CCC4)n2c-3cc3cc(-c4cnc([C@@H]5C[C@H]6C[C@H]6N5C(=O)[C@@H](NC(=O)OC)C5C[C@@H](C)O[C@@H](C)C5)[nH]4)ccc32)[nH]1)C(C)C (single isomer, unassigned) [Compound 551] |  |  |  |  | 11.20 | 10.07 | 10.78 | pIC50 ([1]; HCV replicon 1B): 11.10; pIC50 [2, 16]: 9.77
COC(=O)N[C@H](C(=O)N1CCC[C@H]1c1ncc(-c2ccc3c(c2)OC(c2ccc(C4CC4)s2)n2c-3c(F)c3cc(-c4cnc([C@@H]5C[C@H]6C[C@H]6N5C(=O)[C@@H](NC(=O)OC)C(C)C)[nH]4)ccc32)[nH]1)C(C)C (single isomer, unassigned) [Compound 611] |  |  |  |  |  | 9.74 | 10.94 | pIC50 [1, 12]: 11.85; pIC50 [2, 16]: 9.35; pIC50 [3, 17]: 11.72
COC(=O)N[C@H](C(=O)N1CCC[C@H]1c1ncc(-c2ccc3c(c2)OC(c2cc4ccccc4s2)n2c-3cc3cc(-c4cnc([C@@H]5C[C@@H](F)CN5C(=O)[C@@H](NC(=O)OC)C5CCOCC5)[nH]4)ccc32)[nH]1)C1CCOCC1 (single isomer, unassigned) [Compound 813] |  |  |  |  | 10.37 | 10.74 | 10.42 | pIC50 [1, 12]: 10.06; pIC50 [2, 13]: 8.85
COC(=O)N[C@H](C(=O)N1CCC[C@H]1c1ncc(-c2cc(C)c3c(c2)OC(c2ccc(C4CC4)s2)n2c-3cc3cc(-c4cnc([C@@H]5C[C@H]6C[C@H]6N5C(=O)[C@@H](NC(=O)OC)C(C)C)[nH]4)ccc32)[nH]1)C(C)C (single isomer, unassigned) [Compound 755] |  |  |  |  | 11.55 | 10.64 | 10.66 | pIC50 ([1]; HCV replicon 1B): 11.72; pIC50 [2, 16]: 9.47
CCc1ccc(C2Oc3cc(-c4cnc([C@@H]5CCCN5C(=O)C(NC(=O)OC)C5C[C@@H](C)O[C@@H](C)C5)[nH]4)cc(F)c3-c3cc4cc(-c5cnc([C@@H]6CCCN6C(=O)C(NC(=O)OC)C6C[C@@H](C)O[C@@H](C)C6)[nH]5)ccc4n32)s1 (single isomer, unassigned) [Compound 300] |  | 11.62 | 11.52 | 11.70 |  |  |  | pIC50 ([1]; Hepatitis C virus, replicon 1B): 11.49; IC50 ([2]; Hepatitis C virus): 0.006 nM
